In PMC10838953:

Tests used:
FLT3 = FLT3 (Homo sapiens, UniProt P36888); assay: biochemical; details: read-out: %Ctrl @ 2000nM
p38-beta = p38-beta (Homo sapiens, UniProt Q15759); assay: biochemical; details: read-out: %Ctrl @ 2000nM
GCN2(Kin.Dom.2,S808G) = GCN2(Kin.Dom.2,S808G) (Homo sapiens, UniProt Q9P2K8, S808G); assay: biochemical; details: read-out: %Ctrl @ 2000nM
[1] = target: RSK1(Kin.Dom.2-C-terminal) (Homo sapiens, UniProt Q15418); assay: biochemical; details: read-out: %Ctrl @ 2000nM
CAMK1D = CAMK1D (Homo sapiens, UniProt Q8IU85); assay: biochemical; details: read-out: %Ctrl @ 2000nM
[2] = target: ABL1(Y253F)-phosphorylated (Homo sapiens, UniProt P00519, Y253F); assay: biochemical; details: read-out: %Ctrl @ 2000nM
HIPK1 = HIPK1 (Homo sapiens, UniProt Q86Z02); assay: biochemical; details: read-out: %Ctrl @ 2000nM
ALK(C1156Y) = ALK(C1156Y) (Homo sapiens, UniProt Q9UM73, C1156Y); assay: biochemical; details: read-out: %Ctrl @ 2000nM
TAOK2 = TAOK2 (Homo sapiens, UniProt Q9UL54); assay: biochemical; details: read-out: %Ctrl @ 2000nM
BUB1 = BUB1 (Homo sapiens, UniProt O43683); assay: biochemical; details: read-out: %Ctrl @ 2000nM
YES = YES (Homo sapiens, UniProt P07947); assay: biochemical; details: read-out: %Ctrl @ 2000nM
GRK4 = GRK4 (Homo sapiens, UniProt P32298); assay: biochemical; details: read-out: %Ctrl @ 2000nM
PDPK1 = PDPK1 (Homo sapiens, UniProt O15530); assay: biochemical; details: read-out: %Ctrl @ 2000nM
[3] = system: 786-O, A549, MDA-MB-231, OVCAR-3, U373 MG
MKK7 = MKK7 (Homo sapiens, UniProt O14733); assay: biochemical; details: read-out: %Ctrl @ 2000nM
TAK1 = TAK1 (Homo sapiens, UniProt O43318); assay: biochemical; details: read-out: %Ctrl @ 2000nM
STK36 = STK36 (Homo sapiens, UniProt Q9NRP7); assay: biochemical; details: read-out: %Ctrl @ 2000nM
RIPK5 = RIPK5 (Homo sapiens, UniProt Q6XUX3); assay: biochemical; details: read-out: %Ctrl @ 2000nM
DAPK3 = DAPK3 (Homo sapiens, UniProt O43293); assay: biochemical; details: read-out: %Ctrl @ 2000nM
MTOR = MTOR (Homo sapiens, UniProt P42345); assay: biochemical; details: read-out: %Ctrl @ 2000nM
INSRR = INSRR (Homo sapiens, UniProt P14616); assay: biochemical; details: read-out: %Ctrl @ 2000nM
CSNK1E = CSNK1E (Homo sapiens, UniProt P49674); assay: biochemical; details: read-out: %Ctrl @ 2000nM
HUNK = HUNK (Homo sapiens, UniProt P57058); assay: biochemical; details: read-out: %Ctrl @ 2000nM
DYRK2 = DYRK2 (Homo sapiens, UniProt Q92630); assay: biochemical; details: read-out: %Ctrl @ 2000nM
EPHA7 = EPHA7 (Homo sapiens, UniProt Q15375); assay: biochemical; details: read-out: %Ctrl @ 2000nM
NEK6 = NEK6 (Homo sapiens, UniProt Q9HC98); assay: biochemical; details: read-out: %Ctrl @ 2000nM
MINK = MINK (Homo sapiens, UniProt Q8N4C8); assay: biochemical; details: read-out: %Ctrl @ 2000nM
LRRK2 = LRRK2 (Homo sapiens, UniProt Q5S007); assay: biochemical; details: read-out: %Ctrl @ 2000nM
TLK2 = TLK2 (Homo sapiens, UniProt Q86UE8); assay: biochemical; details: read-out: %Ctrl @ 2000nM
TGFBR2 = TGFBR2 (Homo sapiens, UniProt P37173); assay: biochemical; details: read-out: %Ctrl @ 2000nM
AURKC = AURKC (Homo sapiens, UniProt Q9UQB9); assay: biochemical; details: read-out: %Ctrl @ 2000nM
AKT3 = AKT3 (Homo sapiens, UniProt Q9Y243); assay: biochemical; details: read-out: %Ctrl @ 2000nM
SRC = SRC (Homo sapiens, UniProt P12931); assay: biochemical; details: read-out: %Ctrl @ 2000nM
PDGFRB = PDGFRB (Homo sapiens, UniProt P09619); assay: biochemical; details: read-out: %Ctrl @ 2000nM
p38-alpha = p38-alpha (Homo sapiens, UniProt Q16539); assay: biochemical; details: read-out: %Ctrl @ 2000nM
MARK3 = MARK3 (Homo sapiens, UniProt P27448); assay: biochemical; details: read-out: %Ctrl @ 2000nM
HIPK2 = HIPK2 (Homo sapiens, UniProt Q9H2X6); assay: biochemical; details: read-out: %Ctrl @ 2000nM
PIK3CA(C420R) = PIK3CA(C420R) (Homo sapiens, UniProt P42336, C420R); assay: biochemical; details: read-out: %Ctrl @ 2000nM
NIM1 = NIM1 (Homo sapiens, UniProt Q8IY84); assay: biochemical; details: read-out: %Ctrl @ 2000nM
ERK1 = ERK1 (Homo sapiens, UniProt P27361); assay: biochemical; details: read-out: %Ctrl @ 2000nM
ERK8 = ERK8 (Homo sapiens, UniProt Q8TD08); assay: biochemical; details: read-out: %Ctrl @ 2000nM
PAK2 = PAK2 (Homo sapiens, UniProt Q13177); assay: biochemical; details: read-out: %Ctrl @ 2000nM
MEK3 = MEK3 (Homo sapiens, UniProt P46734); assay: biochemical; details: read-out: %Ctrl @ 2000nM

Chain of DYRK2 (Q92630 whole entry): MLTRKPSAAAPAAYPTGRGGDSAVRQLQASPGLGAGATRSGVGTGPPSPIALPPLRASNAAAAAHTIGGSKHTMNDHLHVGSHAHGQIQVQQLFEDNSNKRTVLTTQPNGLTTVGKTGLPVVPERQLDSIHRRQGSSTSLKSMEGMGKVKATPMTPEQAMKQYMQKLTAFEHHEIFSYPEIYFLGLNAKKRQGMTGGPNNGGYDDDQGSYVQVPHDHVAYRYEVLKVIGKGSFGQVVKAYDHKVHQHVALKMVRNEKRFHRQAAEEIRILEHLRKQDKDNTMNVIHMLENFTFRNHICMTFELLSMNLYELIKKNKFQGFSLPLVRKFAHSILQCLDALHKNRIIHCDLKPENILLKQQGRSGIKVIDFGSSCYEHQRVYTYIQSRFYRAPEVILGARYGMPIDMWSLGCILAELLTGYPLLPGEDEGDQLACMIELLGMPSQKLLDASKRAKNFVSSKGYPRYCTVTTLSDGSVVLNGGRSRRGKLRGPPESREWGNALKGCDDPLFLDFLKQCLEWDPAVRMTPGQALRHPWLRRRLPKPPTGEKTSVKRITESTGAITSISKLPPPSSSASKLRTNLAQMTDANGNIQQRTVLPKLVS
Chain of CSNK1E (P49674 whole entry): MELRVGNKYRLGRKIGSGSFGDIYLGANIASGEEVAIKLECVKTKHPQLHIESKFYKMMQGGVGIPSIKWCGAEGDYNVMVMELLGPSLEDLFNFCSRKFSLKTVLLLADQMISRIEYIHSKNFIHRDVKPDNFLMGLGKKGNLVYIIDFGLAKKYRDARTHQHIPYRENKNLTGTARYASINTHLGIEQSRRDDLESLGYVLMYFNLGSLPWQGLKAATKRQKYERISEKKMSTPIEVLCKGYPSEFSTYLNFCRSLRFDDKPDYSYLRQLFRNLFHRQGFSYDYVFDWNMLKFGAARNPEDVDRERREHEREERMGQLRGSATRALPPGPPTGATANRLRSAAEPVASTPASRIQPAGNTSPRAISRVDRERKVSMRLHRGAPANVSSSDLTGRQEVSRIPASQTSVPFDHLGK
Chain of p38-alpha (Q16539 whole entry): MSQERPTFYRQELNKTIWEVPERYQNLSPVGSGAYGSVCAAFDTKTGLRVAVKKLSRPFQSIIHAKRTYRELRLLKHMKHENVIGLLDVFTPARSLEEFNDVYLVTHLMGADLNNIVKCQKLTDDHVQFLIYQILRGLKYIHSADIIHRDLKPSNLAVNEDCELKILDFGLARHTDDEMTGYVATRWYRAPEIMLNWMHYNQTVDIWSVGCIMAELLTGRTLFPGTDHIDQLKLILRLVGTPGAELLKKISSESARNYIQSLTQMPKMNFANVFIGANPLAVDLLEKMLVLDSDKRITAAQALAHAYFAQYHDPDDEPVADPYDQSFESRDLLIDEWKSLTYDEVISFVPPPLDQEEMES
Chain of STK36 (Q9NRP7 whole entry): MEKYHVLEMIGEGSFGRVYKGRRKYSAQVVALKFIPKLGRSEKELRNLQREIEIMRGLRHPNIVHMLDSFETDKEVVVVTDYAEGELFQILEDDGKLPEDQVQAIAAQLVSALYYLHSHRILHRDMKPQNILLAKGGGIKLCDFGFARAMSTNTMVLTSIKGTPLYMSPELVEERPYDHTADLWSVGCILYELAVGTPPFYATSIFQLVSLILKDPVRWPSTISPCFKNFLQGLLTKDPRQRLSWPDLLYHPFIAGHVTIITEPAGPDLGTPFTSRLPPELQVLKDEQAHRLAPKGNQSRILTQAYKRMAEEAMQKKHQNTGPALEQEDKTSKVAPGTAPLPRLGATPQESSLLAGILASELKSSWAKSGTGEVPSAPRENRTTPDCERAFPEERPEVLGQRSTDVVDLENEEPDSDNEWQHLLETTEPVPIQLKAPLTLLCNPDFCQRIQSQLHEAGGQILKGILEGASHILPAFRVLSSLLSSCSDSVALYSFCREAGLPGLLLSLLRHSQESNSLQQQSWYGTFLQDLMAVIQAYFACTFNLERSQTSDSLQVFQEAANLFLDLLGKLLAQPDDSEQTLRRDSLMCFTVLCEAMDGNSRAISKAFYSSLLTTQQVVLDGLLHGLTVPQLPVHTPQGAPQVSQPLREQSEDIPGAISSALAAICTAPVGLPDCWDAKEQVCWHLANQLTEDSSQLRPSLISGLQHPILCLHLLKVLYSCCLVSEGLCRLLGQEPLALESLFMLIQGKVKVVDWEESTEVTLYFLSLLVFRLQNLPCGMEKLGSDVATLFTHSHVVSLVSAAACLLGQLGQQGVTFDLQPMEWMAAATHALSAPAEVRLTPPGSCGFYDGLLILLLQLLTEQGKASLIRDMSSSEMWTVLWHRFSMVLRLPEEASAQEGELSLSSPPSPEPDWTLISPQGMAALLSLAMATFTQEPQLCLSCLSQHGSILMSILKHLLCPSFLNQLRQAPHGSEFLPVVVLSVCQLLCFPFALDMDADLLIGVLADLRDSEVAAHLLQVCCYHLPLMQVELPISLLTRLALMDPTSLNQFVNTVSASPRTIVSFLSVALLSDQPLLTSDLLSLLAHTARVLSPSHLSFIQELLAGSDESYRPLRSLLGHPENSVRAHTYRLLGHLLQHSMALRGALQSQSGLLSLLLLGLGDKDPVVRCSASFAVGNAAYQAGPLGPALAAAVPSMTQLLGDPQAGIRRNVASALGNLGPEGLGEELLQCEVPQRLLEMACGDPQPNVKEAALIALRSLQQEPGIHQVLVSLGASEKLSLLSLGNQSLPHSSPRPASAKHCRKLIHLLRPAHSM
Chain of GCN2(Kin.Dom.2,S808G) (Q9P2K8 590-1001 S808G limits assumed): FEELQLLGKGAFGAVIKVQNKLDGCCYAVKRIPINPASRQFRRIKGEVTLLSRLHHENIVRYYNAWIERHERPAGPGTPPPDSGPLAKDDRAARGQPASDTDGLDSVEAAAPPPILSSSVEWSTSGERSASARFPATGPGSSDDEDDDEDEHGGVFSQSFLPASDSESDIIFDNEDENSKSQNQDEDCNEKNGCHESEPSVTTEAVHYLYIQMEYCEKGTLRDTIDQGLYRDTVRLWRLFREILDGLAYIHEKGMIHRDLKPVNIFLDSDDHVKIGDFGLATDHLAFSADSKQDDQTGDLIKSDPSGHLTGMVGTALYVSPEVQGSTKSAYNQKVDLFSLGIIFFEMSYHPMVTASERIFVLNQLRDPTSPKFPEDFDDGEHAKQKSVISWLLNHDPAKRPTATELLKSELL
Chain of TGFBR2 (P37173 23-567): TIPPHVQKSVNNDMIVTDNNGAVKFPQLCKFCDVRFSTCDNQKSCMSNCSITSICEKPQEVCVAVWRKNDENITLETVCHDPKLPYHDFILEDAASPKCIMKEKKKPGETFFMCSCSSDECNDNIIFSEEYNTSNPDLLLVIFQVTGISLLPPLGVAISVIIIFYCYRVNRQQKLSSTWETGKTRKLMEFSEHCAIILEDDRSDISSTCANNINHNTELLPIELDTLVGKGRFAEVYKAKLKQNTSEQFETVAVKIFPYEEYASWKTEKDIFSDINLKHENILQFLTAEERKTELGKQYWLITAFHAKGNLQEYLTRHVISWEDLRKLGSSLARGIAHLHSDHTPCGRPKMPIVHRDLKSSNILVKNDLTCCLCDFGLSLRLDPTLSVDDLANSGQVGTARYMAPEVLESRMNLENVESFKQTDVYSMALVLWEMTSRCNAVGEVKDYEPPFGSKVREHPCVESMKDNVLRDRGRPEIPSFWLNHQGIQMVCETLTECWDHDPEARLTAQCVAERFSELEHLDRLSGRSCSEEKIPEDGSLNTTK
Chain of MKK7 (O14733 whole entry): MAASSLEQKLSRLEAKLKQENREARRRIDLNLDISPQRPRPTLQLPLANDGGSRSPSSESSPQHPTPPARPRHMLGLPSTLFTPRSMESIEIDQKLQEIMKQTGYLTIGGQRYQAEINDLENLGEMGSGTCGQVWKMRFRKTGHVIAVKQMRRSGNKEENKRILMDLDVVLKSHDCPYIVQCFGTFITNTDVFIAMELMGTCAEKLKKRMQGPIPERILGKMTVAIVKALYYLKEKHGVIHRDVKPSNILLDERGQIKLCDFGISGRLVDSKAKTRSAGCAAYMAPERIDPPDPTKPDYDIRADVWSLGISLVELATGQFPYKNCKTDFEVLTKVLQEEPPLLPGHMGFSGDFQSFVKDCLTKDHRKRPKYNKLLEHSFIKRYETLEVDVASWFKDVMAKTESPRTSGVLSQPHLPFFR
Chain of AURKC (Q9UQB9 whole entry): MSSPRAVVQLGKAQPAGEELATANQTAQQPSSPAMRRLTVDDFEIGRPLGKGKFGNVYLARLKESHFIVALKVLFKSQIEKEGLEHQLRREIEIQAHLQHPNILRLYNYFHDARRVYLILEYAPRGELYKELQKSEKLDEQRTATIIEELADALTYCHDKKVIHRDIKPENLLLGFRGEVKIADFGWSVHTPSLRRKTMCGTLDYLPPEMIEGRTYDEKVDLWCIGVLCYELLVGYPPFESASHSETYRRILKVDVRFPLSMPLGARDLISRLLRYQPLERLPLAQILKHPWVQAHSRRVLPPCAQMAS
Chain of ERK8 (Q8TD08 whole entry): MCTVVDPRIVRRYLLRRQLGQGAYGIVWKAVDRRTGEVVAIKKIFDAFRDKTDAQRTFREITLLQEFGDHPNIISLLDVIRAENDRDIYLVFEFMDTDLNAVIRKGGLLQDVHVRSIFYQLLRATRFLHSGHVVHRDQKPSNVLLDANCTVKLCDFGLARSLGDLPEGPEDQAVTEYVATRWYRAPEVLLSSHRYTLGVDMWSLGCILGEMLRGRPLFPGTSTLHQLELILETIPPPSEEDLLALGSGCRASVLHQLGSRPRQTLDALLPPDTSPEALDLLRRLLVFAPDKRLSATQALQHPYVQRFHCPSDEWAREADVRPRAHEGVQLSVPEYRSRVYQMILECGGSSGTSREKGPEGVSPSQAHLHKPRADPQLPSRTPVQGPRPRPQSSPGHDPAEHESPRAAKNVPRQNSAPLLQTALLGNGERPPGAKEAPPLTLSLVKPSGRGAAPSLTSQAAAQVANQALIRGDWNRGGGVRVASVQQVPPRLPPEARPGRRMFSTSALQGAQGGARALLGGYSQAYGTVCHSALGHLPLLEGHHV

CC(C)COC(=O)c1[nH]c2ccc(F)cc2c1-c1cn(CC2CCN(CCNS(=O)(=O)c3ccc(CC(C)C)cc3)CC2)nn1 [AB668, isobutyl 5-fluoro-3-(1-((1-(2-((4-isobutylphenyl)sulfonamido)ethyl)piperidin-4-yl)methyl)-1H-1,2,3-triazol-4-yl)-1H-indole-2-carboxylate]
remaining activity at 2 µM (FLT3): 87% | remaining activity at 2 µM (p38-beta): 74% | remaining activity at 2 µM (GCN2(Kin.Dom.2,S808G)): 80% | remaining activity at 2 µM [1]: 100% | remaining activity at 2 µM (CAMK1D): 96% | remaining activity at 2 µM [2]: 95% | remaining activity at 2 µM (HIPK1): 100% | remaining activity at 2 µM (ALK(C1156Y)): 81% | remaining activity at 2 µM (TAOK2): 100% | remaining activity at 2 µM (BUB1): 94% | remaining activity at 2 µM (YES): 100% | remaining activity at 2 µM (GRK4): 98% | remaining activity at 2 µM (PDPK1): 98% | cell death in various cancer cells [3]: broad effect on cell death | remaining activity at 2 µM (MKK7): 82% | remaining activity at 2 µM (TAK1): 84% | remaining activity at 2 µM (STK36): 100% | remaining activity at 2 µM (RIPK5): 95% | remaining activity at 2 µM (DAPK3): 100% | remaining activity at 2 µM (MTOR): 92% | remaining activity at 2 µM (INSRR): 93% | remaining activity at 2 µM (CSNK1E): 66% | remaining activity at 2 µM (HUNK): 88% | remaining activity at 2 µM (DYRK2): 76% | remaining activity at 2 µM (EPHA7): 93% | remaining activity at 2 µM (NEK6): 87% | remaining activity at 2 µM (MINK): 100% | remaining activity at 2 µM (LRRK2): 65% | remaining activity at 2 µM (TLK2): 88% | remaining activity at 2 µM (TGFBR2): 90% | remaining activity at 2 µM (AURKC): 100% | remaining activity at 2 µM (AKT3): 92% | remaining activity at 2 µM (SRC): 92% | remaining activity at 2 µM (PDGFRB): 100% | remaining activity at 2 µM (p38-alpha): 87% | remaining activity at 2 µM (MARK3): 0% | remaining activity at 2 µM (HIPK2): 100% | remaining activity at 2 µM (PIK3CA(C420R)): 100% | remaining activity at 2 µM (NIM1): 84% | remaining activity at 2 µM (ERK1): 75% | remaining activity at 2 µM (ERK8): 53% | remaining activity at 2 µM (PAK2): 81% | remaining activity at 2 µM (MEK3): 100%
